# Patent US20170226072A1, “1,4-Disubstituted Piperidines, 1,4-Disubstituted Piperazines, 1,4-Disubstituted Diazepines, and 1,3-Disubstituted Pyrrolidine Compounds” (University of Kentucky Research Foundation, priority 2013, published 2017)
# Experiments:
# [1] = molecular target: T1, serotonin transporter (SERT) (Rattus norvegicus, UniProt P31652); assay: [3H]5-HT uptake assay, striatal synaptosomal preparation; assay type: biochemical; settings: rat striatal synaptosomes, GBR-12935 (100 nM) in buffer; read-out: SERT [3H]5-HT Uptake Inhibition Mean ± SEM (Ki)
# T1 construct: from tissue
# Description: (§1) [^3H]DA and [^3H]5-HT Uptake Assay, Synaptosomal Preparation
# (§2) [^3H]DA and [^3H]5-HT uptake into striatal synaptosomes was determined to evaluate compound inhibition of the dopamine transporter (DAT) and the serotonin transporter (SERT), respectively. […] Homogenates were centrifuged at 2000 g for 10 min at 4° C., and resulting supernatants were centrifuged at 20,000 g for 17 min at 4° C. […] Assays were performed in duplicate in a total volume of 500 (for DAT assays) or 250 μL (for SERT assays). […] Reactions were terminated by addition of 3 mL of ice-cold assay buffer and subsequent filtration and radioactivity retained by the filters was determined by liquid scintillation spectrometry (Tri-Carb 2100TR liquid scintillation analyzer; PerkinElmer Life and Analytical Sciences, Boston, Mass.).
# [2] = molecular target: T2, VMAT2 (Rattus norvegicus, UniProt Q01827); assay: [3H]Dihydrotetrabenazine ([3H]DTBZ) binding assay, vesicular preparation; settings: rat brain synaptic vesicles, 3 nM [3H]DTBZ; read-out: Inhibition of [3H]DTBZ binding (Ki) VMAT2
# T2 construct: conducted using isolated synaptic vesicle preparations; from tissue; host or cells: rat striatum, isolated synaptic vesicles
# Description: [^3H]Dihydrotetrabenazine ([^3H]DTBZ) Binding Assay, Vesicular Preparation
# The resulting supernatant (S1) was then centrifuged at 22,000 g for 10 min at 4° C. The synaptosomal pellets (P2) were homogenized in 18 mL of ice-cold Milli-Q water and exposed for 5 min for lysing synaptosomes. Osmolarity was restored by addition of 2 mL of 25 mM HEPES with 100 mM dipotassium tartrate (pH 7.5). Samples were centrifuged at 20,000 g for 20 min at 4° C. to remove lysed synaptosomal membranes. MgSO4 (1 mM) was added to the supernatant (S3), and was centrifuged at 100,000 g for 45 min at 4° C. […] Aliquot parts (100 μL) of suspension of vesicle membrane protein were incubated in assay buffer (25 mM HEPES, 100 mM dipotassium tartrate, 5 mM MgSO4, 0.1 mM EDTA and 0.05 mM EGTA, pH 7.5, at 25° C.) in the presence of 3 nM [^3H]DTBZ and at least 7 concentrations (1 nM-1 mM) of compound for 1 hr at room temperature. Nonspecific binding was determined in the presence of 20 μM tetrabenazine, a standard compound. Assays were performed in duplicate using a 96-well plate format. Reactions were terminated by filtration of samples on a Unifilter-96 GF/B filter plates (presoaked in 0.5% polyethylenimine), using a FilterMate harvester (Packard BioScience Co., Meriden, Conn.).
# After washing 5 times with 350 μL of the ice-cold wash buffer (25 mM HEPES, 100 mM dipotassium tartrate, 5 mM MgSO4 and 10 mM NaCl, pH 7.5), filter plates were dried, sealed and each well filled with 40 μL Packard's MicroScint 20 cocktail. Bound [^3H]DTBZ was measured using a Packard TopCount NXT scintillation counter with a Packard Windows NT based operating system.
# [3] = molecular target: T3, hERG channel (Homo sapiens, UniProt Q12809); assay: [3H]Dofetilide binding assay, HEK-293 cell membrane preparation; settings: HEK-293 cell membranes expressing hERG, 5 nM [3H]dofetilide; read-out: hERG [3H]Dofetilide Binding Inhibition Mean ± SEM (IC50)
# T3 construct: expressed in transfected cells
# Description: [^3H]Dofetilide Binding Assay, HEK-293 Cell Membrane Preparation
# [^3H]Dofetilide binding assays were conducted using commercially available HEK-293 cell membranes which stably express the hERG channel. Membranes were suspended in assay buffer (50 mM Tris, 10 mM KCl, 1 mM MgCl2, pH 7.4) prior to the experiment. Assays were performed in duplicate in a total volume of 250 μL. Aliquots of the HEK-293 cell membrane suspension which contained 5 μg membrane protein were added to tubes containing assay buffer, 5 nM [^3H]dofetilide and a range of concentrations of analog (10 nM-100 μM). Nonspecific binding was determined in the presence of amitriptyline (1 mM). Samples were incubated for 1 hr. at 24° C., followed by rapid filtration. Radioactivity retained by the filters was determined by liquid scintillation spectrometry as described above for the [^3H]DA uptake assay. The affinity for the [^3H]dofetilide binding site on the hERG channel expressed in the HEK-293 cellular membrane was determined from the analog concentration response curves.
# [4] = molecular target: T2, VMAT2; assay: [3H]Dopamine ([3H]DA) uptake assay, vesicular preparation; assay type: biochemical
# Description: [^3H]Dopamine ([^3H]DA) Uptake Assay, Vesicular Preparation
# Homogenates were centrifuged (2,000 g for 10 min at 4° C.), and then the supernatants were centrifuged (10,000 g for 30 min at 4° C.). Pellets were resuspended in 2 ml of 0.32 M sucrose solution and subjected to osmotic shock by adding 7 ml of ice-cold MilliQ water to the preparation. After 1 min, osmolarity was restored by adding 900 μl of 0.25 M HEPES buffer and 900 μl of 1.0 M potassium tartrate solution. Samples were centrifuged (20,000 g for 20 min at 4° C.), and the supernatants were centrifuged (55,000 g for 1 hr at 4° C.), followed by addition of 100 μl of 10 mM MgSO4, 100 μl of 0.25 M HEPES and 100 μl of 1.0 M potassium tartrate solution prior to the final centrifugation (100,000 g for 45 min at 4° C.). Final pellets were resuspended in 2.4 ml of assay buffer (25 mM HEPES, 100 mM potassium tartrate, 50 μM EGTA, 100 μM EDTA, 1.7 mM ascorbic acid, 2 mM ATP-Mg^2+, pH 7.4). Aliquots of the vesicular suspension (100 μl) were added to tubes containing assay buffer, various concentrations of compound (0.1 nM-10 mM) and 0.1 μM [^3H]DA in a final volume of 500 and incubated at 37° C. for 8 min. […] Reactions were terminated by filtration, and radioactivity retained by the filters was determined by liquid scintillation spectrometry (Tri-Carb 2100TR liquid scintillation analyzer; PerkinElmer Life and Analytical Sciences, Boston, Mass.).
# [5] = molecular target: T4, dopamine transporter (DAT) (Rattus norvegicus, UniProt P23977); assay: [3H]DA uptake assay, striatal synaptosomal preparation; assay type: biochemical; settings: rat striatal synaptosomes; read-out: DAT [3H]DA Uptake Inhibition Mean ± SEM (Ki)
# T4 construct: from tissue; host or cells: rat striatum, synaptosomes
# Description: as §1, §2
# [6] = test system: VMAT2 over hERG, DAT and SERT; assay: Lead compound criteria: 30-fold selectivity for VMAT2 over hERG, DAT and SERT; settings: criterion: 30-fold selectivity for VMAT2 over hERG
# Description: Accordingly, this test assessed the potential of the tested compounds to produce cardiac arrhythmias via interaction at this off-target site. The criterion for compounds to be considered leads was a 30-fold selectivity for VMAT2 over hERG.
# [7] = rat striatal synaptic vesicles, 0.1 μM [3H]DA, read-out: [3H]DA Uptake (Ki) VMAT2
# [8] = synaptic vesicle preparations, summary of Table 1, read-out: inhibition of [3H]DA uptake, Ki
# T2 sequence (Q01827 whole entry): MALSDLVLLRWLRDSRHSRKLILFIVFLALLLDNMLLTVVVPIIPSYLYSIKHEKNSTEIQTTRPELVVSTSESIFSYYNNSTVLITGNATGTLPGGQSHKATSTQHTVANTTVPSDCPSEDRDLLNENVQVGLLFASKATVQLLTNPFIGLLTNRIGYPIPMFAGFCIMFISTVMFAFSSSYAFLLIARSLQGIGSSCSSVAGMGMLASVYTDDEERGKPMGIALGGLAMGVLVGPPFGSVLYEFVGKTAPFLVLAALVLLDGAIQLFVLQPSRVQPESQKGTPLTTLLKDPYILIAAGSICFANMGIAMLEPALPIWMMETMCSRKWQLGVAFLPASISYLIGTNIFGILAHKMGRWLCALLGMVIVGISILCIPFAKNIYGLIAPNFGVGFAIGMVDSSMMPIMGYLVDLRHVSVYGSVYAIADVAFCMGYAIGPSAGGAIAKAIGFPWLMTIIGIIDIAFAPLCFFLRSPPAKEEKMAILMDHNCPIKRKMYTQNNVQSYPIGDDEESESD
# T3 sequence (Q12809 whole entry): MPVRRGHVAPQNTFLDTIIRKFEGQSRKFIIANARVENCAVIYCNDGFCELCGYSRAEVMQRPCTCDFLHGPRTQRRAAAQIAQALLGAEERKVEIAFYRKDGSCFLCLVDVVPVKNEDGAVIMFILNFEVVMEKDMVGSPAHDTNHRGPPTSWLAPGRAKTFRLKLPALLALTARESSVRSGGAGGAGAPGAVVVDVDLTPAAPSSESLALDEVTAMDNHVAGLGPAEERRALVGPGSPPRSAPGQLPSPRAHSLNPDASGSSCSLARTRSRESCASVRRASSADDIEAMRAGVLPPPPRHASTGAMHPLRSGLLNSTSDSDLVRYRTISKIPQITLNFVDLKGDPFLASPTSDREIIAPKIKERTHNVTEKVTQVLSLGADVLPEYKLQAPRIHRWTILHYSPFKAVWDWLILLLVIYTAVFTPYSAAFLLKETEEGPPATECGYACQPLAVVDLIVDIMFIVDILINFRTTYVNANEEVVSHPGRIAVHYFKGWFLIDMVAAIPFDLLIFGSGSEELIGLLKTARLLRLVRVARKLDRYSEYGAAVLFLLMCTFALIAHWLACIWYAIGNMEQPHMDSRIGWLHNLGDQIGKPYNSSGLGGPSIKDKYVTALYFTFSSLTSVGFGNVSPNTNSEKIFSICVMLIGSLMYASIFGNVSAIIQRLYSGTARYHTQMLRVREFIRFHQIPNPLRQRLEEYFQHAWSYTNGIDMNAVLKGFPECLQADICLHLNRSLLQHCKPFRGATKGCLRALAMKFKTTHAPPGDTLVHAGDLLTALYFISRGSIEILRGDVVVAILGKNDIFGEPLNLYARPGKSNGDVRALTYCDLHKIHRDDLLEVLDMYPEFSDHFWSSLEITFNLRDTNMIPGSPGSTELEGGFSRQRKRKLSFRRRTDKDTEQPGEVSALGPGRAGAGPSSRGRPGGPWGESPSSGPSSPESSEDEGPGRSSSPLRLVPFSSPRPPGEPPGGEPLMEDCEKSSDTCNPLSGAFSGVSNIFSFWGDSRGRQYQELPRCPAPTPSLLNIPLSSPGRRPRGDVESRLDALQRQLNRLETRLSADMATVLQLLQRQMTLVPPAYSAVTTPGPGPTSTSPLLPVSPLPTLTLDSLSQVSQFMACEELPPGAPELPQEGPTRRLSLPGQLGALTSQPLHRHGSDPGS
# T1 sequence (P31652 whole entry): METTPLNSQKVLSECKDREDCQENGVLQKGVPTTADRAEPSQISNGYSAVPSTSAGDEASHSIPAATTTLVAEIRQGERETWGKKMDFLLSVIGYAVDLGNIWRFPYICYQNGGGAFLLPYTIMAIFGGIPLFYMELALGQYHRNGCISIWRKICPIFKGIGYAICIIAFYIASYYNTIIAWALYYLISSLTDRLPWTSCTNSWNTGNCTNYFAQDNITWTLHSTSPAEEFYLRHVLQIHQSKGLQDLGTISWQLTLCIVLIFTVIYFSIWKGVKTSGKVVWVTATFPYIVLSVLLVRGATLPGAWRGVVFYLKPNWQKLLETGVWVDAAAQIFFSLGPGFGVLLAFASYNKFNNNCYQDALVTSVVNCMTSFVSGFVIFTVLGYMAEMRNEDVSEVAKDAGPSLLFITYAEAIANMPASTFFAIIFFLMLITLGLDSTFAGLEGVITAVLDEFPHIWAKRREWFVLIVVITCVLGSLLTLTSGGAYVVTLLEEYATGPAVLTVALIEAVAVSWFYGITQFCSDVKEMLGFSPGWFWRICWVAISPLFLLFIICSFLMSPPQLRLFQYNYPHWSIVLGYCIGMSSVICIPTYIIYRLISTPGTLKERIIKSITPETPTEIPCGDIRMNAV
# T4 sequence (P23977 whole entry): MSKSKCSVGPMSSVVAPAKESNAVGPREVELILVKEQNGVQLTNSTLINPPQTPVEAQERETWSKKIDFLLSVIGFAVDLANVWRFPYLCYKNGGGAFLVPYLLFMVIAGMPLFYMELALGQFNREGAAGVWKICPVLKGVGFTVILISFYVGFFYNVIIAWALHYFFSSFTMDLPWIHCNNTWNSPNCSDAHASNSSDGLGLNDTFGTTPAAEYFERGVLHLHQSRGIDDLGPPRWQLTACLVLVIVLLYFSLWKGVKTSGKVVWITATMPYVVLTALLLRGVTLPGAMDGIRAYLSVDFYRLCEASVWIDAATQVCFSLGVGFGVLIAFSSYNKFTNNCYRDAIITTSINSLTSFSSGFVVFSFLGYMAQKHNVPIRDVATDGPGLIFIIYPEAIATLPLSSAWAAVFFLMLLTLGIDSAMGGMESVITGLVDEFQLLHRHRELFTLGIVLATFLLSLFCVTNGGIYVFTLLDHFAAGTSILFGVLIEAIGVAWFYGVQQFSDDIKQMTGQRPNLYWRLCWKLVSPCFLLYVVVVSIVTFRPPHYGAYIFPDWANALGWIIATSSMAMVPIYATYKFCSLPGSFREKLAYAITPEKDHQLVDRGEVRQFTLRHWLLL
SMILES,Ki [1] [nM],Ki [2] [nM],IC50 [3] [nM],"Ki [4, 7] [nM]",Ki [5] [nM],"Ki [4, 8] [nM]","lead compound status (30-fold selectivity for VMAT2 over hERG, DAT and SERT) [6]"
COc1cccc(CCN2CCC(CCc3ccccc3)CC2)c1 [Compound 2],1150 ± 90,265 ± 38,489 ± 84.7,22 ± 0.87,3130 ± 190,–,–
"COc1ccccc1CCC1CCN(CCc2ccccc2OC)CC1 [Compound 12, 1,4-bis(2-methoxyphenethyl)piperidine]",120 ± 10,190 ± 8.8,1070 ± 90.6,9.3 ± 0.6,3450 ± 450,9 to 20,successfully met the criteria for lead compound status
COc1ccccc1CCC1CCN(CCc2ccccc2)CC1 [Compound 13],750 ± 180,690 ± 50,1650 ± 670,22 ± 2.8,3560 ± 1210,–,successfully met the criteria for lead compound status
COc1ccc(CCC2CCN(CCc3ccccc3Cl)CC2)cc1 [Compound 24],4150 ± 1450,230 ± 20,2090 ± 391,40 ± 7,5160 ± 1250,–,successfully met the criteria for lead compound status
"COc1ccccc1CCC1CCN(CCc2ccc(F)cc2)CC1 [Compound 29, 1-(4-fluorophenethyl)-4-(2-methoxyphenethyl)piperidine]",580 ± 70,400 ± 97,347 ± 18.8,13 ± 2.1,4130 ± 440,9 to 20,–
"c1ccc(CCN2CCN(CCc3ccccc3)CC2)cc1 [Compound 54, 1,4-diphenethylpiperazine]",11400 ± 4140,3050 ± 640,3390 ± 1940,110 ± 12,13600 ± 2690,–,–
COc1ccccc1CCN1CCN(CCc2ccccc2OC)CC1 [Compound 55],1580 ± 415,–,1020 ± 180,–,14400 ± 456,–,–
COc1cccc(CCN2CCN(CCc3cccc(OC)c3)CC2)c1 [Compound 56],3620 ± 1300,–,1490 ± 204,–,7900 ± 2890,–,–
Clc1ccccc1CCN1CCN(CCc2ccccc2Cl)CC1 [Compound 58],3340 ± 1530,–,1080 ± 175,–,6310 ± 1010,–,–
Fc1ccc(CCN2CCN(CCc3ccc(F)cc3)CC2)cc1 [Compound 59],4950 ± 900,3710 ± 480,362 ± 15.5,58 ± 12,6580 ± 1410,–,–
COc1ccccc1CCN1CCN(CCc2ccccc2)CC1 [Compound 60],2580 ± 415,–,3190 ± 327,–,12800 ± 4460,–,–
COc1cccc(CCN2CCN(CCc3ccccc3)CC2)c1 [Compound 61],6920 ± 1350,1300 ± 330,4230 ± 860,98 ± 16,17200 ± 4520,–,successfully met the criteria for lead compound status
COc1ccc(CCN2CCN(CCc3ccccc3)CC2)cc1 [Compound 62],3720 ± 20,4630 ± 1310,9190 ± 375,100 ± 11,11600 ± 3080,–,successfully met the criteria for lead compound status
Fc1ccc(CCN2CCN(CCc3ccccc3)CC2)cc1 [Compound 64],4460 ± 727,3860 ± 1010,2290 ± 475,88 ± 6.9,8040 ± 2570,–,–
